What was measured:
Format in all cases: in vivo
[1] = tested on: Amaranthus retoflexus (AMARE); assay: Pre-emergence glasshouse herbicide test; conditions: pre-emergence (sprayed after one day cultivation), 1000 g/h, evaluated after 13 days, five point scale
How it was run: (§1)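 Damage was rated 13 days after treatment on a five-point scale (1 = 0–19%, 5 = 80–100%). The compound, formulated in 50:50 acetone/water with 0.5% Tween 20, was sprayed at 1000 g/h on pots one day (pre) or 8 days (post) after sowing, kept in a glasshouse at 24/16° C, 14 h light, 65% humidity.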

Setaria faberi (SETFA) [2] = assay: Pre-emergence glasshouse herbicide test; conditions: pre-emergence (sprayed after one day cultivation), 1000 g/h, evaluated after 13 days, five point scale
How it was run: as §1

[3] = tested on: Ipomoea hederacea (IPOHE); assay: Pre-emergence glasshouse herbicide test; conditions: pre-emergence (sprayed after one day cultivation), 1000 g/h, evaluated after 13 days, five point scale
How it was run: as §1

[4] = tested on: Echinochloa crus-galli (ECHCG); assay: Pre-emergence glasshouse herbicide test; conditions: pre-emergence (sprayed after one day cultivation), 1000 g/h, evaluated after 13 days, five point scale
How it was run: as §1

Solanum nigrum (SOLNI) [5] = assay: Pre-emergence glasshouse herbicide test; conditions: pre-emergence (sprayed after one day cultivation), 1000 g/h, evaluated after 13 days, five point scale
How it was run: as §1

[6] = tested on: Alopecurus myosuroides (ALOMY); assay: Pre-emergence glasshouse herbicide test; conditions: pre-emergence (sprayed after one day cultivation), 1000 g/h, evaluated after 13 days, five point scale
How it was run: as §1

[7] = tested on: Amaranthus retoflexus (AMARE); assay: Post-emergence glasshouse herbicide test; conditions: post-emergence (sprayed after 8 days cultivation), 1000 g/h, evaluated after 13 days, five point scale
How it was run: as §1

Setaria faberi (SETFA) [8] = assay: Post-emergence glasshouse herbicide test; conditions: post-emergence (sprayed after 8 days cultivation), 1000 g/h, evaluated after 13 days, five point scale
How it was run: as §1

[9] = tested on: Ipomoea hederacea (IPOHE); assay: Post-emergence glasshouse herbicide test; conditions: post-emergence (sprayed after 8 days cultivation), 1000 g/h, evaluated after 13 days, five point scale
How it was run: as §1

[10] = tested on: Echinochloa crus-galli (ECHCG); assay: Post-emergence glasshouse herbicide test; conditions: post-emergence (sprayed after 8 days cultivation), 1000 g/h, evaluated after 13 days, five point scale
How it was run: as §1

Solanum nigrum (SOLNI) [11] = assay: Post-emergence glasshouse herbicide test; conditions: post-emergence (sprayed after 8 days cultivation), 1000 g/h, evaluated after 13 days, five point scale
How it was run: as §1

[12] = tested on: Alopecurus myosuroides (ALOMY); assay: Post-emergence glasshouse herbicide test; conditions: post-emergence (sprayed after 8 days cultivation), 1000 g/h, evaluated after 13 days, five point scale
How it was run: as §1

CS(=O)(=O)c1cc(C(F)(F)F)ccc1-n1ncc(C2CC2)c(O)c1=O [Compound 1.031]
5 (5=80-100%): percentage damage caused to the plant, PRE Application AMARE [1] | percentage damage caused to the plant, PRE Application SETFA (Setaria faberi (SETFA) [2]) | percentage damage caused to the plant, PRE Application IPOHE [3] | percentage damage caused to the plant, PRE Application ECHCG [4] | percentage damage caused to the plant, PRE Application SOLNI (Solanum nigrum (SOLNI) [5]) | percentage damage caused to the plant, PRE Application ALOMY [6] | percentage damage caused to the plant, POST Application AMARE [7] | percentage damage caused to the plant, POST Application SETFA (Setaria faberi (SETFA) [8]) | percentage damage caused to the plant, POST Application IPOHE [9] | percentage damage caused to the plant, POST Application ECHCG [10] | percentage damage caused to the plant, POST Application SOLNI (Solanum nigrum (SOLNI) [11]) | percentage damage caused to the plant, POST Application ALOMY [12]

CS(=O)(=O)c1cc(C(F)(F)F)ccc1-n1ncc(Br)c(O)c1=O [Compound 1.032]
5 (5=80-100%): percentage damage caused to the plant, PRE Application AMARE [1] | percentage damage caused to the plant, PRE Application SETFA (Setaria faberi (SETFA) [2]) | percentage damage caused to the plant, PRE Application IPOHE [3] | percentage damage caused to the plant, PRE Application ECHCG [4] | percentage damage caused to the plant, PRE Application SOLNI (Solanum nigrum (SOLNI) [5]) | percentage damage caused to the plant, PRE Application ALOMY [6] | percentage damage caused to the plant, POST Application AMARE [7] | percentage damage caused to the plant, POST Application SETFA (Setaria faberi (SETFA) [8]) | percentage damage caused to the plant, POST Application IPOHE [9] | percentage damage caused to the plant, POST Application ECHCG [10] | percentage damage caused to the plant, POST Application SOLNI (Solanum nigrum (SOLNI) [11]) | percentage damage caused to the plant, POST Application ALOMY [12]

CSc1cnn(-c2ccc(C(F)(F)F)cc2S(C)(=O)=O)c(=O)c1O [Compound 1.034]
5 (5=80-100%): percentage damage caused to the plant, PRE Application AMARE [1] | percentage damage caused to the plant, PRE Application SOLNI (Solanum nigrum (SOLNI) [5]) | percentage damage caused to the plant, POST Application AMARE [7] | percentage damage caused to the plant, POST Application SOLNI (Solanum nigrum (SOLNI) [11])
1 (1=0-19%): percentage damage caused to the plant, PRE Application ALOMY [6] | percentage damage caused to the plant, POST Application ALOMY [12]
3 (3=40-59%): percentage damage caused to the plant, PRE Application SETFA (Setaria faberi (SETFA) [2]) | percentage damage caused to the plant, POST Application SETFA (Setaria faberi (SETFA) [8])
4 (4=60-79%): percentage damage caused to the plant, PRE Application IPOHE [3] | percentage damage caused to the plant, PRE Application ECHCG [4] | percentage damage caused to the plant, POST Application IPOHE [9] | percentage damage caused to the plant, POST Application ECHCG [10]

CCc1cnn(-c2ccc(C(F)(F)F)nc2S(C)(=O)=O)c(=O)c1O [Compound 1.036]
5 (5=80-100%): percentage damage caused to the plant, PRE Application AMARE [1] | percentage damage caused to the plant, PRE Application SETFA (Setaria faberi (SETFA) [2]) | percentage damage caused to the plant, PRE Application IPOHE [3] | percentage damage caused to the plant, PRE Application ECHCG [4] | percentage damage caused to the plant, PRE Application SOLNI (Solanum nigrum (SOLNI) [5]) | percentage damage caused to the plant, PRE Application ALOMY [6] | percentage damage caused to the plant, POST Application AMARE [7] | percentage damage caused to the plant, POST Application SETFA (Setaria faberi (SETFA) [8]) | percentage damage caused to the plant, POST Application IPOHE [9] | percentage damage caused to the plant, POST Application ECHCG [10] | percentage damage caused to the plant, POST Application SOLNI (Solanum nigrum (SOLNI) [11]) | percentage damage caused to the plant, POST Application ALOMY [12]

CCc1cnn(-c2ccc(Cl)cc2S(C)(=O)=O)c(=O)c1O [Compound 1.037]
4 (4=60-79%): percentage damage caused to the plant, PRE Application IPOHE [3] | percentage damage caused to the plant, POST Application IPOHE [9]
5 (5=80-100%): percentage damage caused to the plant, PRE Application AMARE [1] | percentage damage caused to the plant, PRE Application SETFA (Setaria faberi (SETFA) [2]) | percentage damage caused to the plant, PRE Application ECHCG [4] | percentage damage caused to the plant, PRE Application SOLNI (Solanum nigrum (SOLNI) [5]) | percentage damage caused to the plant, PRE Application ALOMY [6] | percentage damage caused to the plant, POST Application AMARE [7] | percentage damage caused to the plant, POST Application SETFA (Setaria faberi (SETFA) [8]) | percentage damage caused to the plant, POST Application ECHCG [10] | percentage damage caused to the plant, POST Application SOLNI (Solanum nigrum (SOLNI) [11]) | percentage damage caused to the plant, POST Application ALOMY [12]

CCc1ccc(-n2ncc(CC)c(O)c2=O)c(S(C)(=O)=O)c1 [Compound 1.038]
4 (4=60-79%): percentage damage caused to the plant, PRE Application ALOMY [6] | percentage damage caused to the plant, POST Application ALOMY [12]
5 (5=80-100%): percentage damage caused to the plant, PRE Application AMARE [1] | percentage damage caused to the plant, PRE Application SETFA (Setaria faberi (SETFA) [2]) | percentage damage caused to the plant, PRE Application IPOHE [3] | percentage damage caused to the plant, PRE Application ECHCG [4] | percentage damage caused to the plant, PRE Application SOLNI (Solanum nigrum (SOLNI) [5]) | percentage damage caused to the plant, POST Application AMARE [7] | percentage damage caused to the plant, POST Application SETFA (Setaria faberi (SETFA) [8]) | percentage damage caused to the plant, POST Application IPOHE [9] | percentage damage caused to the plant, POST Application ECHCG [10] | percentage damage caused to the plant, POST Application SOLNI (Solanum nigrum (SOLNI) [11])

C[S+]([O-])c1cnn(-c2ccc(C(F)(F)F)cc2S(C)(=O)=O)c(=O)c1O (stereo not drawn) [Compound 1.041]
4 (4=60-79%): percentage damage caused to the plant, PRE Application IPOHE [3] | percentage damage caused to the plant, PRE Application ECHCG [4] | percentage damage caused to the plant, POST Application IPOHE [9] | percentage damage caused to the plant, POST Application ECHCG [10]
5 (5=80-100%): percentage damage caused to the plant, PRE Application AMARE [1] | percentage damage caused to the plant, PRE Application SOLNI (Solanum nigrum (SOLNI) [5]) | percentage damage caused to the plant, POST Application AMARE [7] | percentage damage caused to the plant, POST Application SOLNI (Solanum nigrum (SOLNI) [11])
1 (1=0-19%): percentage damage caused to the plant, PRE Application ALOMY [6] | percentage damage caused to the plant, POST Application ALOMY [12]
2 (2=20-39%): percentage damage caused to the plant, PRE Application SETFA (Setaria faberi (SETFA) [2]) | percentage damage caused to the plant, POST Application SETFA (Setaria faberi (SETFA) [8])

CS(=O)(=O)c1cc(C(F)(F)F)ccc1-n1ncc(S(C)(=O)=O)c(O)c1=O [Compound 1.042]
2 (2=20-39%): percentage damage caused to the plant, PRE Application AMARE [1] | percentage damage caused to the plant, PRE Application SOLNI (Solanum nigrum (SOLNI) [5]) | percentage damage caused to the plant, POST Application AMARE [7] | percentage damage caused to the plant, POST Application SOLNI (Solanum nigrum (SOLNI) [11])
1 (1=0-19%): percentage damage caused to the plant, PRE Application SETFA (Setaria faberi (SETFA) [2]) | percentage damage caused to the plant, PRE Application IPOHE [3] | percentage damage caused to the plant, PRE Application ECHCG [4] | percentage damage caused to the plant, PRE Application ALOMY [6] | percentage damage caused to the plant, POST Application SETFA (Setaria faberi (SETFA) [8]) | percentage damage caused to the plant, POST Application IPOHE [9] | percentage damage caused to the plant, POST Application ECHCG [10] | percentage damage caused to the plant, POST Application ALOMY [12]

Cc1c(-n2ncc([S+](C)[O-])c(O)c2=O)ccc(S(C)(=O)=O)c1C1=NOCC1 (stereo not drawn) [Compound 1.043]
1 (1=0-19%): percentage damage caused to the plant, PRE Application ALOMY [6] | percentage damage caused to the plant, POST Application ALOMY [12]
4 (4=60-79%): percentage damage caused to the plant, PRE Application SOLNI (Solanum nigrum (SOLNI) [5]) | percentage damage caused to the plant, POST Application SOLNI (Solanum nigrum (SOLNI) [11])
3 (3=40-59%): percentage damage caused to the plant, PRE Application SETFA (Setaria faberi (SETFA) [2]) | percentage damage caused to the plant, PRE Application IPOHE [3] | percentage damage caused to the plant, PRE Application ECHCG [4] | percentage damage caused to the plant, POST Application SETFA (Setaria faberi (SETFA) [8]) | percentage damage caused to the plant, POST Application IPOHE [9] | percentage damage caused to the plant, POST Application ECHCG [10]
5 (5=80-100%): percentage damage caused to the plant, PRE Application AMARE [1] | percentage damage caused to the plant, POST Application AMARE [7]

— patent publication US20140323300A1, “HERBICIDAL COMPOUNDS” (SYNGENTA LIMITED, priority 2011, published 2014)
